Results on twelve compounds are retold here after US20220389007A1, “INHIBITORS OF HUMAN IMMUNODEFICIENCY VIRUS REPLICATION” (VIIV HEALTHCARE UK (No. 5) LIMITED, priority 2019, published 2022).

By pEC50 is commonly meant the EC50 on a negative log10 scale, so that one unit is a factor of ten. As usually defined, the CC50 is the concentration at which the toxic effect on the cells reaches its halfway point.

The subject of one data set is recombinant NL4-3 virus. The data set is described as follows: HIV cell culture assay (antiviral activity, luciferase readout). Type of data set: cell-based. The following applies: Human immunodeficiency virus 1, NL43, MT2, MT-2 cells infected for 4-5 days with recombinant NL4-3 virus carrying Renilla luciferase. A digest of the protocol:
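MT-2 cells infected for 4-5 days with NL4-3 reference virus carrying Renilla luciferase in place of part of nef, in presence of serial compound dilutions. Luciferase read with live-cell substrate; EC50 from median effect equation fit.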

Data set [1] can be described thus: Compound cytotoxicity, XTT-based colorimetric assay. It is filed as cell-based. The following applies: human; uninfected MT2 cells, day 4, XTT assay. A digest of the protocol:
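Run under the antiviral-assay protocol but without virus. Viability was read on day 4 and CC50 values were derived from the readout.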

pEC50: −log10 of the molar value.

Take `Cn1nc(NS(C)(=O)=O)c2c(Cl)ccc(-n3c([C@H](Cc4cc(F)cc(F)c4)NC(=O)Cn4nc(C(F)F)c5c4C(F)(F)[C@@H]4C[C@H]54)nc4nc(-c5cccc(F)n5)ccc4c3=O)c21` (atropisomer, axis not shown; (P)) [Example 30, N-((S)-1-((3P)-3-(4-chloro-1-methyl-3-(methylsulfonamido)-1H-indazol-7-yl)-7-(6-fluoropyridin-2-yl)-4-oxo-3,4-dihydropyrido[2,3-d]pyrimidin-2-yl)-2-(3,5-difluorophenyl)ethyl)-2-((3bS,4aR)-3-(difluoromethyl)-5,5-difluoro-3b,4,4a,5-tetrahydro-1H-cyclopropa[3,4]cyclopenta[1,2-c]pyrazol-1-yl)acetamide]: the pEC50 in the data set on recombinant NL4-3 virus is 10.47. The compound also registered a CC50 at 4 day in data set [1] of over 100000 pM.
On the same counts, the results for `Cc1cccc(-c2ccc3c(=O)n(-c4ccc(Cl)c5c(NS(C)(=O)=O)nn(C)c45)c([C@H](Cc4cc(F)cc(F)c4)NC(=O)Cn4nc(C(F)F)c5c4C(F)(F)[C@@H]4C[C@H]54)nc3n2)n1` (atropisomer, axis not shown; (P)) [Example 31, N-((S)-1-((3P)-3-(4-chloro-1-methyl-3-(methylsulfonamido)-1H-indazol-7-yl)-7-(6-methylpyridin-2-yl)-4-oxo-3,4-dihydropyrido[2,3-d]pyrimidin-2-yl)-2-(3,5-difluorophenyl)ethyl)-2-((3bS,4aR)-3-(difluoromethyl)-5,5-difluoro-3b,4,4a,5-tetrahydro-1H-cyclopropa[3,4]cyclopenta[1,2-c]pyrazol-1-yl)acetamide] are 10.51 and over 100000 pM.
On the same counts, the results for `Cn1nc(NS(C)(=O)=O)c2c(Cl)ccc(-n3c([C@H](Cc4cc(F)cc(F)c4)NC(=O)Cn4nc(C(F)F)c5c4C(F)(F)[C@@H]4C[C@H]54)nc4nc(-c5ccc(S(C)(=O)=O)cc5F)ccc4c3=O)c21` (atropisomer, axis not shown; (P)) [Example 32, N-((S)-1-((3P)-3-(4-chloro-1-methyl-3-(methylsulfonamido)-1H-indazol-7-yl)-7-(2-fluoro-4-(methylsulfonyl)phenyl)-4-oxo-3,4-dihydropyrido[2,3-d]pyrimidin-2-yl)-2-(3,5-difluorophenyl)ethyl)-2-((3bS,4aR)-3-(difluoromethyl)-5,5-difluoro-3b,4,4a,5-tetrahydro-1H-cyclopropa[3,4]cyclopenta[1,2-c]pyrazol-1-yl)acetamide] are 10.12 and over 100000 pM.
Consider `Cn1nc(NS(C)(=O)=O)c2c(Cl)ccc(-n3c([C@H](Cc4cc(F)cc(F)c4)NC(=O)Cn4nc(C(F)F)c5c4C(F)(F)[C@@H]4C[C@H]54)nc4nc(-c5ccnnc5)ccc4c3=O)c21` (atropisomer, axis not shown; (P)) [Example 33, N-((S)-1-((3P)-3-(4-chloro-1-methyl-3-(methylsulfonamido)-1H-indazol-7-yl)-4-oxo-7-(pyridazin-4-yl)-3,4-dihydropyrido[2,3-d]pyrimidin-2-yl)-2-(3,5-difluorophenyl)ethyl)-2-((3bS,4aR)-3-(difluoromethyl)-5,5-difluoro-3b,4,4a,5-tetrahydro-1H-cyclopropa[3,4]cyclopenta[1,2-c]pyrazol-1-yl)acetamide], for which, in the data set with recombinant NL4-3 virus, the pEC50 was 9.35. In addition, the cytotoxic concentration (CC50) at 4 day in data set [1] was over 100000 pM.
The like results for `Cn1nc(NS(C)(=O)=O)c2c(Cl)ccc(-n3c([C@H](Cc4cc(F)cc(F)c4)NC(=O)Cn4nc(C(F)F)c5c4C(F)(F)[C@@H]4C[C@H]54)nc4nc(-c5ccncc5)ccc4c3=O)c21` (atropisomer, axis not shown; (P)) [Example 34, N-((S)-1-((3P)-3-(4-chloro-1-methyl-3-(methylsulfonamido)-1H-indazol-7-yl)-4-oxo-7-(pyridin-4-yl)-3,4-dihydropyrido[2,3-d]pyrimidin-2-yl)-2-(3,5-difluorophenyl)ethyl)-2-((3bS,4aR)-3-(difluoromethyl)-5,5-difluoro-3b,4,4a,5-tetrahydro-1H-cyclopropa[3,4]cyclopenta[1,2-c]pyrazol-1-yl)acetamide] were, in that order, 10.15 and over 100000 pM.
On the same counts, the results for `Cn1nc(NS(C)(=O)=O)c2c(Cl)ccc(-n3c([C@H](Cc4cc(F)cc(F)c4)NC(=O)Cn4nc(C(F)F)c5c4C(F)(F)[C@@H]4C[C@H]54)nc4nc(-c5ccc(S(C)(=O)=O)cc5)ccc4c3=O)c21` (atropisomer, axis not shown; (P)) [Example 35, N-((S)-1-((3P)-3-(4-chloro-1-methyl-3-(methylsulfonamido)-1H-indazol-7-yl)-7-(4-(methylsuIfonyl)phenyl)-4-oxo-3,4-dihydropyrido[2,3-d]pyrimidin-2-yl)-2-(3,5-difluorophenyl)ethyl)-2-((3bS,4aR)-3-(difluoromethyl)-5,5-difluoro-3b,4,4a,5-tetrahydro-1H-cyclopropa[3,4]cyclopenta[1,2-c]pyrazol-1-yl)acetamide] are 9.85 and over 100000 pM.
On the same counts, the results for `Cn1nc(NS(C)(=O)=O)c2c(Cl)ccc(-n3c([C@H](Cc4cc(F)cc(F)c4)NC(=O)Cn4nc(C(F)F)c5c4C(F)(F)[C@@H]4C[C@H]54)nc4nc(-c5nc(C(F)(F)F)ccc5F)ccc4c3=O)c21` (atropisomer, axis not shown; (P)) [Example 36, N-((S)-1-((3P)-3-(4-chloro-1-methyl-3-(methylsulfonamido)-1H-indazol-7-yl)-7-(3-fluoro-6-(trifluoromethyl)pyridin-2-yl)-4-oxo-3,4-dihydropyrido[2,3-d]pyrimidin-2-yl)-2-(3,5-difluorophenyl)ethyl)-2-((3bS,4aR)-3-(difluoromethyl)-5,5-difluoro-3b,4,4a,5-tetrahydro-1H-cyclopropa[3,4]cyclopenta[1,2-c]pyrazol-1-yl)acetamide] are 10.35 and over 100000 pM.
In the case of `Cn1nc(NS(C)(=O)=O)c2c(Cl)ccc(-n3c([C@H](Cc4cc(F)cc(F)c4)NC(=O)Cn4nc(C(F)F)c5c4C(F)(F)[C@@H]4C[C@H]54)nc4nc(-c5ccnc(C(F)(F)F)n5)ccc4c3=O)c21` (atropisomer, axis not shown; (P)) [Example 37, N-((S)-1-((3P)-3-(4-chloro-1-methyl-3-(methylsulfonamido)-1H-indazol-7-yl)-4-oxo-7-(2-(trifluoromethyl)pyrimidin-4-yl)-3,4-dihydropyrido[2,3-d]pyrimidin-2-yl)-2-(3,5-difluorophenyl)ethyl)-2-((3bS,4aR)-3-(difluoromethyl)-5,5-difluoro-3b,4,4a,5-tetrahydro-1H-cyclopropa[3,4]cyclopenta[1,2-c]pyrazol-1-yl)acetamide], in the data set on recombinant NL4-3 virus, the pEC50 was 9.96. In data set [1], the CC50 at 4 day was over 100000 pM.
The like results for `Cn1nc(NS(C)(=O)=O)c2c(Cl)ccc(-n3c([C@H](Cc4cc(F)cc(F)c4)NC(=O)Cn4nc(C(F)F)c5c4C(F)(F)[C@@H]4C[C@H]54)nc4nc(-c5cccc(C(F)F)n5)ccc4c3=O)c21` (atropisomer, axis not shown; (P)) [Example 38, N-((S)-1-((3P)-3-(4-chloro-1-methyl-3-(methylsulfonamido)-1H-indazol-7-yl)-7-(6-(difluoromethyl)pyridin-2-yl)-4-oxo-3,4-dihydropyrido[2,3-d]pyrimidin-2-yl)-2-(3,5-difluorophenyl)ethyl)-2-((3bS,4aR)-3-(difluoromethyl)-5,5-difluoro-3b,4,4a,5-tetrahydro-1H-cyclopropa[3,4]cyclopenta[1,2-c]pyrazol-1-yl)acetamide] were, in that order, 10.29 and over 100000 pM.
The like results for `Cn1nc(NS(C)(=O)=O)c2c(Cl)ccc(-n3c([C@H](Cc4cc(F)cc(F)c4)NC(=O)Cn4nc(C(F)F)c5c4C(F)(F)[C@@H]4C[C@H]54)nc4nc(-c5cc(C(F)F)ccn5)ccc4c3=O)c21` (atropisomer, axis not shown; (P)) [Example 39, N-((S)-1-((3P)-3-(4-chloro-1-methyl-3-(methylsulfonamido)-1H-indazol-7-yl)-7-(4-(difluoromethyl)pyridin-2-yl)-4-oxo-3,4-dihydropyrido[2,3-d]pyrimidin-2-yl)-2-(3,5-difluorophenyl)ethyl)-2-((3bS,4aR)-3-(difluoromethyl)-5,5-difluoro-3b,4,4a,5-tetrahydro-1H-cyclopropa[3,4]cyclopenta[1,2-c]pyrazol-1-yl)acetamide] were, in that order, 10.34 and over 100000 pM.
On the same counts, the results for `Cn1nc(NS(C)(=O)=O)c2c(Cl)ccc(-n3c([C@H](Cc4cc(F)cc(F)c4)NC(=O)Cn4nc(C(F)F)c5c4C(F)(F)[C@@H]4C[C@H]54)nc4nc(-c5ncccn5)ccc4c3=O)c21` (atropisomer, axis not shown; (P)) [Example 47, N-((S)-1-((3P)-3-(4-chloro-1-methyl-3-(methylsulfonamido)-1H-indazol-7-yl)-4-oxo-7-(pyrimidin-2-yl)-3,4-dihydropyrido[2,3-d]pyrimidin-2-yl)-2-(3,5-difluorophenyl)ethyl)-2-((3bS,4aR)-3-(difluoromethyl)-5,5-difluoro-3b,4,4a,5-tetrahydro-1H-cyclopropa[3,4]cyclopenta[1,2-c]pyrazol-1-yl)acetamide] are 10.17 and over 100000 pM.
Take `Cc1cc(-c2ccc3c(=O)n(-c4ccc(Cl)c5c(NS(C)(=O)=O)nn(C)c45)c([C@H](Cc4cc(F)cc(F)c4)NC(=O)Cn4nc(C(F)F)c5c4C(F)(F)[C@@H]4C[C@H]54)nc3n2)ccn1` (atropisomer, axis not shown; (P)) [Example 48, N-((S)-1-((3P)-3-(4-chloro-1-methyl-3-(methylsulfonamido)-1H-indazol-7-yl)-7-(2-methylpyridin-4-yl)-4-oxo-3,4-dihydropyrido[2,3-d]pyrimidin-2-yl)-2-(3,5-difluorophenyl)ethyl)-2-((3bS,4aR)-3-(difluoromethyl)-5,5-difluoro-3b,4,4a,5-tetrahydro-1H-cyclopropa[3,4]cyclopenta[1,2-c]pyrazol-1-yl)acetamide]: the negative logarithm of the EC50 (pEC50) with recombinant NL4-3 virus was 10.28. In data set [1], this compound yielded a half-maximal cytotoxic concentration (CC50) at 4 day of over 100000 pM.
